Test results as given in ChEMBL document CHEMBL1137055, “Pyrazolo[1,5-a]pyrimidines as estrogen receptor ligands: defining the orientation of a novel heterocyclic core” (Bioorg Med Chem Lett, 2004).

Assays:
[1] = biological target: Estrogen receptor beta (Homo sapiens) (UniProt Q92731); assay: Binding affinity for Estrogen receptor beta compared to estradiol (100%)
[2] = biological target: T1, Estrogen receptor (Homo sapiens) (UniProt P03372); assay: Binding affinity for Estrogen receptor alpha compared to estradiol (100%)
T1 sequence (whole entry): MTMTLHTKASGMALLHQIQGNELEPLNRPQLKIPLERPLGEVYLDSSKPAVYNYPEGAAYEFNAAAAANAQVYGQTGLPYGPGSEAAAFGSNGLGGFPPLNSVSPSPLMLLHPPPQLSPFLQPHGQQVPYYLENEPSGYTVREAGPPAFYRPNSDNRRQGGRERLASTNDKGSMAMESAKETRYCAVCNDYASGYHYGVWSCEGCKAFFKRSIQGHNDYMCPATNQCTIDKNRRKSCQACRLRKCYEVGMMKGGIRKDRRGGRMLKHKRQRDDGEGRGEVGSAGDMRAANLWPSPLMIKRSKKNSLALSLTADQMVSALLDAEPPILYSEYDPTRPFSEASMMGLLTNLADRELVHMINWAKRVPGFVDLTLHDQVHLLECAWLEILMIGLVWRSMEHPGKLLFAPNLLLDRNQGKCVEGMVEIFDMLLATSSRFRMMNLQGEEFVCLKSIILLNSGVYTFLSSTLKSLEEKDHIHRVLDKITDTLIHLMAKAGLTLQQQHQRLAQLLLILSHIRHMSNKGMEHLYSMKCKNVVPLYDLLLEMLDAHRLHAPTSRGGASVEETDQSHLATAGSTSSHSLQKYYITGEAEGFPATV

Chain of Estrogen receptor beta (Homo sapiens) (Q92731 whole entry): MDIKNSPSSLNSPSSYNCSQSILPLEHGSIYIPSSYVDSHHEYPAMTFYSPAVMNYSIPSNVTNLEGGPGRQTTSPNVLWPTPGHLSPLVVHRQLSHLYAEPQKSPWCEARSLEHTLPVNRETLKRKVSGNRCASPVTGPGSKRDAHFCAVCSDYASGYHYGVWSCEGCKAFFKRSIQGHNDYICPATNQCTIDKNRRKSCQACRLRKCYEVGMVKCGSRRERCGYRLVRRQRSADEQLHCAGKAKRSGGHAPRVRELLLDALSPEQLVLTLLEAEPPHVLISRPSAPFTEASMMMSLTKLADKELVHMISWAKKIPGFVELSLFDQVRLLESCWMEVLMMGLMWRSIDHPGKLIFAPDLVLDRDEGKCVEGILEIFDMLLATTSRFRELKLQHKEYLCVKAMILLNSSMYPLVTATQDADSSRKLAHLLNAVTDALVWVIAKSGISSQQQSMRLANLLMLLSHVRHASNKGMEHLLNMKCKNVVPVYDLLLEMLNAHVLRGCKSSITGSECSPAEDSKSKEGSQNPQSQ

Compound	Binding affinity [1]	Binding affinity [2]
Oc1ccc(-c2nn3cc(O)cnc3c2-c2ccc(O)cc2)cc1	0.03%	0.004%
Oc1ccc(-c2c(-c3ccccc3)nn3cccnc23)cc1	0.02%	0.007%
Oc1ccc(-c2nn3cc(O)cnc3c2-c2ccccc2)cc1	0.01%	0.003%
Oc1cnc2c(-c3ccccc3)c(-c3ccccc3)nn2c1	0.005%	–
Oc1ccc(-c2nn3cccnc3c2-c2ccccc2)cc1	0.05%	0.01%
Oc1ccc(-c2nn3cccnc3c2-c2ccc(O)cc2)cc1	0.1%	0.004%
Oc1ccc(-c2c(-c3ccccc3)nn3cc(O)cnc23)cc1	0.006%	–
